Data reported in US8785457B2 (Cellzome Limited, priority 2009, dated 2014).
Read-outs that look alike come from different tables or passages of the source.

Legend:
[1] = molecular target: T1, DNA-dependent protein kinase (DNA-PK) (Homo sapiens, UniProt P78527); assay: kinobeads assay, DNA-PK; format: binding
T1 construct: endogenous in cells; host or cells: Jurkat, clone E6-1 (ATCC TIB-152) cell lysate
Procedure, shortened: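 Competitive binding in Jurkat cell lysate (5 mg/mL protein) against beads carrying an immobilized phenylmorpholin-chromen ligand, in DP buffer pH 7.4 with NP40, DTT and NaF. Bead-bound kinases were eluted and quantified by antibody dot blot with infrared detection, and IC50 was taken from dose-response curves of a 1:3 dilution series.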

[2] = system: S6RP serine-240/244 phosphorylation; assay: In vitro Phospho-S6 cellular assay (pS6RP S240/244) in HEK293T/17 cells; format: cell-based; conditions: Homo sapiens, 2 hours, read-out: pS6 IC50
Description: Activation of mTOR signaling results in phosphorylation of several downstream targets. In cells, mTOR exists in two different protein complexes. The mTOR Complex-1 (mTORC1) phosphorylates and activates S6 Kinase 1 (S6K1) and S6 Kinase 2 (S6K2) (also known as p70S6K) which then phosphorylate S6 Ribosomal Protein (S6RP) (also known as RPS6)3. S6RP is phosphorylated on serine 235, serine 236, serine 240 and serine 244 by both pS6K1 and pS6K2. The mTOR Complex-2 (mTORC2) phosphorylates AKT on serine 473 which activates the AKT signaling pathway.
The assay measures a test compound's inhibition of S6RP serine-240/244 phosphorylation and inhibition of Akt serine-473 phosphorylation in human embryonic kidney derived HEK293T/17 cells (ATCC CRL-11268).
The HEK293T/17 cell line is maintained in DMEM media (Invitrogen catalogue number 41965-039) supplemented with 10% FCS at 37° C. in a 5% CO2 humidified incubator.
Cells are seeded in 96-well plates at 40,000 cells/well (pS6RP S240/244 assay) or 80,000 cells/well (pAkt S473 assay) in 90 μl growth media (DMEM, 2% FCS). Plates are incubated for 1 hour in a humidified incubator to allow the cells to adhere. Cells are treated with 8 concentrations of test compounds or DMSO alone for controls (final DMSO concentration 0.1%) and incubated at 37° C. for 2 hours. Then 20 μl of 5× concentrated lysis buffer (750 mM NaCl, 100 mM Tris pH7.4, 5 mM ADTA, 5 mM EGTA, 5% Triton X-100) is added, plates are sealed and incubated for 15 minutes at 4° C. with gentle shaking. After cell lysis, 25 μl cell lysate is transferred to a MesoScale plate coated with an antibody to pS6RP Ser240/244 (MesoScale Discovery K150DGD-3) or an antibody to pAkt Ser 473 (MesoScale Discovery K151DGD-3). Plates have been blocked before by incubation with 150 μl MesoScale Discovery Blocking Solution-A for 1 hour at room temperature followed by washing with 150 μl 1× Tris wash buffer per well. After the transfer of the cell lysate to the MSD plate, the pS6RP (or pAkt) protein is captured on the coated antibody by incubation at room temperature for 1 hour with gentle shaking. After the capture step the plate is washed three times with 150 μl of 1× Tris wash buffer per well. Then 25 μl detection antibody conjugated with a Sulfo-Tag is added and incubated for 1 hour at room temperature with gentle shaking. Subsequently the antibody solution is removed and the plate is washed 3 times with 150 μl×Tris wash buffer per well and 150 μl Read buffer is added. The plates are analysed on a MSD 2400 Plate Reader (MesoScale Discovery). Data analysis is performed using nonlinear regression for a sigmoidal dose-response with a variable slope.

[3] = kinobeads assay, Table 4, read-out: Inhibition values (IC50) DNA-PK
[4] = kinobeads assay, Table 6, read-out: Inhibition values (IC50) DNAPK
[5] = Further Kinobeads Data, read-out: DNAPK

T1 sequence (P78527 whole entry): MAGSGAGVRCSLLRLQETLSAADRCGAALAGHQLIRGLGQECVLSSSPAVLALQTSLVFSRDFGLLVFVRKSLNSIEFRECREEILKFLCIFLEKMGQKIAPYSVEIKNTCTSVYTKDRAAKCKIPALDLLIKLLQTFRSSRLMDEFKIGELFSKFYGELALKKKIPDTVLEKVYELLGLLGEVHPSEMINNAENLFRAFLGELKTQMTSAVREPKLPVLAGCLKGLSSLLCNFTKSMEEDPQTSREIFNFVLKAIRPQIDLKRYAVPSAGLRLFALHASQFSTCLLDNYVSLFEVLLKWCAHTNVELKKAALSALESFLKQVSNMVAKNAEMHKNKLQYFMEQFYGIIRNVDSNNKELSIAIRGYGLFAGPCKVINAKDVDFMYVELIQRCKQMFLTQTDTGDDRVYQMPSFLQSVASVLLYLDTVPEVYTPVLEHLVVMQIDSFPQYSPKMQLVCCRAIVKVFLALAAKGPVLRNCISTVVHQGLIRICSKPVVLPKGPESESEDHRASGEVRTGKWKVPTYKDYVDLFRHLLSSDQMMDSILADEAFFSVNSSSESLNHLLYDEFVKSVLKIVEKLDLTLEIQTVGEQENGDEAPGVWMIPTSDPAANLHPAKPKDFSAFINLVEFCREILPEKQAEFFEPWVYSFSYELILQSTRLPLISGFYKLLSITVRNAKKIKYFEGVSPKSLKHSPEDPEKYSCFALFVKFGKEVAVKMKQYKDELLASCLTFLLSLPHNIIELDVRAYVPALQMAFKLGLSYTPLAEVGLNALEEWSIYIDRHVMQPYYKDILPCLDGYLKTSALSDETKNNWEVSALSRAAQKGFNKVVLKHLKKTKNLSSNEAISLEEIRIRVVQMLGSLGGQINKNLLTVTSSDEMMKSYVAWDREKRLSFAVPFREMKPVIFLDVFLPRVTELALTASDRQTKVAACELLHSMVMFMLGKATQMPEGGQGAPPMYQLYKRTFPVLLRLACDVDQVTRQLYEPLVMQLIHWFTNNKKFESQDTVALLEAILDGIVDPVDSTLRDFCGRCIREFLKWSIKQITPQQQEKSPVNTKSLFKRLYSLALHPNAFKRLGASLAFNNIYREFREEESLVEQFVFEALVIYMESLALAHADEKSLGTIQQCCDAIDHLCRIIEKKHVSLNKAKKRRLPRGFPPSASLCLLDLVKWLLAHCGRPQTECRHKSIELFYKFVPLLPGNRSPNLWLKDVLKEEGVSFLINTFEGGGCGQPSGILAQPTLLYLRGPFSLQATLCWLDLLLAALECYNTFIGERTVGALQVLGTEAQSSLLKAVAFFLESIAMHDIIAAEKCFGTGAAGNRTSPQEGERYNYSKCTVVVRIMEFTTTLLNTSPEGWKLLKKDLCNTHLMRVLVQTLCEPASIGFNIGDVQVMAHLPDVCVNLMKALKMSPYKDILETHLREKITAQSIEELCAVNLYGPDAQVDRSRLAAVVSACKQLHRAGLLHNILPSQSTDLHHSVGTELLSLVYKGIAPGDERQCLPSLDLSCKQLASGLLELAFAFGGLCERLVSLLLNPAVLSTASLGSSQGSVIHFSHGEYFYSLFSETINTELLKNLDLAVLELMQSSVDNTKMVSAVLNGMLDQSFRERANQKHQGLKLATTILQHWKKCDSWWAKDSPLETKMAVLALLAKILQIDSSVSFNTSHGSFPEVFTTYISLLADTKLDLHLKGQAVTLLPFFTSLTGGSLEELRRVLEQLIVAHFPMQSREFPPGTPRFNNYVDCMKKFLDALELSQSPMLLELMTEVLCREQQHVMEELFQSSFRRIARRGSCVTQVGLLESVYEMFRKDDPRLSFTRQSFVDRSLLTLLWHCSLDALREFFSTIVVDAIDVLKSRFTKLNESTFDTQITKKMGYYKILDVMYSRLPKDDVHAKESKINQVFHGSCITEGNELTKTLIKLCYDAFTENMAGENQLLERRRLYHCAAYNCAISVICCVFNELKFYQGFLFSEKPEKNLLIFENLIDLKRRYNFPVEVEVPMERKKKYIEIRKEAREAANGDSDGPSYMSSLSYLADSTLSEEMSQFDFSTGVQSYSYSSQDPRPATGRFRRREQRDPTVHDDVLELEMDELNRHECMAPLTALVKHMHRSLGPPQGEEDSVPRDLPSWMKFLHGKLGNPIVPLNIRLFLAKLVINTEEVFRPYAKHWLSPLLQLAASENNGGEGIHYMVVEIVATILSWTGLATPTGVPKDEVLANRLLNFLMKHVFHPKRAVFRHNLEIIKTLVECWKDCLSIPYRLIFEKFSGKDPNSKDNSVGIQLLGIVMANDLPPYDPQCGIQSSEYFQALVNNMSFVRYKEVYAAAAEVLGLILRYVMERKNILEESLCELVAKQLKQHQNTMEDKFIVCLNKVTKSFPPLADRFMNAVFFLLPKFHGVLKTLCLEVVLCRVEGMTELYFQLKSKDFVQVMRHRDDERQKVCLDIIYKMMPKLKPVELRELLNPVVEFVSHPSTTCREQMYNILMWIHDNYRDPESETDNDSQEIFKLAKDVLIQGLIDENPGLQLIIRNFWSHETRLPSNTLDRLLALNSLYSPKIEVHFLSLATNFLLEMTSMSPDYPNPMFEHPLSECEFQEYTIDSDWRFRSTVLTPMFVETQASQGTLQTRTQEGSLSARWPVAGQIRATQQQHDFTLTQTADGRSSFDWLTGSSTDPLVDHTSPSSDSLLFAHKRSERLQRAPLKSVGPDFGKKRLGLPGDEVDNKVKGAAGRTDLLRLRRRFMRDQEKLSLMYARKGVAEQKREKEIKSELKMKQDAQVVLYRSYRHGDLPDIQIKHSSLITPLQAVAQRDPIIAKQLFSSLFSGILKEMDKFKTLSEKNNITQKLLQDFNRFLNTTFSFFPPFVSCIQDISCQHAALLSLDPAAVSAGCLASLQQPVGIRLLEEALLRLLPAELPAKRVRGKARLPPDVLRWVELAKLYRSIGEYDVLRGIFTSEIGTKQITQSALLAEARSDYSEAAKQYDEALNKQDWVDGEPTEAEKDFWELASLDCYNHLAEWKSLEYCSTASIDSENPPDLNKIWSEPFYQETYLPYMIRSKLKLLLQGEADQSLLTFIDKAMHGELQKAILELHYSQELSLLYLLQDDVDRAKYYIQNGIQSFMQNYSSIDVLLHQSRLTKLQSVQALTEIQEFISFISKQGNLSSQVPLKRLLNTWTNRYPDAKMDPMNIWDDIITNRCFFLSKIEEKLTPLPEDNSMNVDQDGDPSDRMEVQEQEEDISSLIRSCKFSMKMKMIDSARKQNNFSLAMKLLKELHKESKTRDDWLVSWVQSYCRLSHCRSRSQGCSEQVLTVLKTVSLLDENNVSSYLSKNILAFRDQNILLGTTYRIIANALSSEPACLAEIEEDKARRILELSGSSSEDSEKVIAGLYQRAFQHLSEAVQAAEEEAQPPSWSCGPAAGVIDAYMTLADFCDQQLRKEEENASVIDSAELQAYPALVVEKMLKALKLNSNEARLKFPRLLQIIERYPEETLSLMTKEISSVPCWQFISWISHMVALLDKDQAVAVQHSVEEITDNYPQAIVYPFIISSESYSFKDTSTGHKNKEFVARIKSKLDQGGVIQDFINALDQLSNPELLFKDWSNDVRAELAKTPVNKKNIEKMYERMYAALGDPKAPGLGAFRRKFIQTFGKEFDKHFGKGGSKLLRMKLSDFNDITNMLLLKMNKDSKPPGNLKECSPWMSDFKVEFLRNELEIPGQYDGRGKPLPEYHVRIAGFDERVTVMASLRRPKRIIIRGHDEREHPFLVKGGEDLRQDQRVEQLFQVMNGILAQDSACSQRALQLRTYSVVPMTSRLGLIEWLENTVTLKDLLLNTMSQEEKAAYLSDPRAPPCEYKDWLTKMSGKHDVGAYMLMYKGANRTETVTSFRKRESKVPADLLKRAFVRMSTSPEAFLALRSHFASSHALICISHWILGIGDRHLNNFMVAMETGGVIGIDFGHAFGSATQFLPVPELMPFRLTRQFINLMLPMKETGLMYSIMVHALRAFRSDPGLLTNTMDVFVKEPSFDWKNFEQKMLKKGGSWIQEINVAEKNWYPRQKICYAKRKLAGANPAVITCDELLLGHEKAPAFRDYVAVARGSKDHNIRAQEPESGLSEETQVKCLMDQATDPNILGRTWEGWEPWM

Structure (SMILES): CCNC(=O)Nc1ccc(-c2nc3c(c(N4CCOC[C@@H]4C)n2)CCN(C(=O)c2ccc(F)cc2)C3)cc1 [Example 24, (S)-1-ethyl-3-(4-(7-(4-fluorobenzoyl)-4-(3-methylmorpholino)-5,6,7,8-tetrahydropyrido[3,4-d]pyrimidin-2-yl)phenyl)urea]
- IC50 [1, 3]: > 10 µM
- IC50 [1, 4]: > 10 µM
- IC50 [2]: 0.126 µM

Structure (SMILES): CCNC(=O)Nc1ccc(-c2nc3c(c(N4CCOC[C@@H]4C)n2)CCN(CC2CC2)C3)cc1 [Example 37, (S)-1-(4-(7-(cyclopropylmethyl)-4-(3-methylmorpholino)-5,6,7,8-tetrahydropyrido[3,4-d]pyrimidin-2-yl)phenyl)-3-ethylurea]
- IC50 [1, 3]: > 10 µM
- IC50 [1, 4]: > 10 µM
- IC50 [2]: 0.086 µM

Structure (SMILES): CCOC(=O)N1Cc2nc(-c3ccc(NC(=O)NC4CC4)cc3)nc(N3CCOC[C@@H]3C)c2C1 [Example 34, (S)-ethyl 2-(4-(3-cyclopropylureido)phenyl)-4-(3-methylmorpholino)-5H-pyrrolo[3,4-d]pyrimidine-6(7H)-carboxylate]
- IC50 [1, 3]: > 10 µM
- IC50 [1, 4]: > 10 µM
- IC50 [2]: 0.049 µM

Structure (SMILES): CC(C)NC(=O)N1CCc2c(nc(-c3ccc(NC(=O)NC4CC4)cc3F)nc2N2CCOC[C@@H]2C)C1 [Example 189, (S)-2-(4-(3-cyclopropylureido)-2-fluorophenyl)-N-isopropyl-4-(3-methylmorpholino)-5,6-dihydropyrido[3,4-d]pyrimidine-7(8H)-carboxamide]
- IC50 [1, 5]: > 10 µM
- IC50 [2]: 0.133 µM

Structure (SMILES): CCNC(=O)Nc1ccc(-c2nc3c(c(N4CCOC[C@@H]4C)n2)CN(C(=O)C(C)C)C3)cc1 [Example 21, (S)-1-ethyl-3-(4-(6-isobutyryl-4-(3-methylmorpholino)-6,7-dihydro-5H-pyrrolo[3,4-d]pyrimidin-2-yl)phenyl)urea]
- IC50 [1, 3]: > 10 µM
- IC50 [1, 4]: > 10 µM
- IC50 [2]: 0.111 µM

Structure (SMILES): CC(C)N1Cc2nc(-c3ccc(NC(=O)NCCF)cc3F)nc(N3CCOC[C@@H]3C)c2C1 [Example 186, (S)-1-(3-fluoro-4-(6-isopropyl-4-(3-methylmorpholino)-6,7-dihydro-5H-pyrrolo[3,4-d]pyrimidin-2-yl)phenyl)-3-(2-fluoroethyl)urea]
- IC50 [1, 5]: > 10 µM
- IC50 [2]: 0.197 µM

Structure (SMILES): C[C@H]1COCCN1c1nc(-c2ccc(NC(=O)NC3CC3)cc2)nc2c1CN(CC(C)(C)C)C2 [Example 25, (S)-1-cyclopropyl-3-(4-(4-(3-methylmorpholino)-6-neopentyl-6,7-dihydro-5H-pyrrolo[3,4-d]pyrimidin-2-yl)phenyl)urea]
- IC50 [1, 3]: > 10 µM
- IC50 [1, 4]: > 10 µM
- IC50 [2]: 0.098 µM

Structure (SMILES): CCNC(=O)Nc1ccc(-c2nc3c(c(N4CCOC[C@@H]4C)n2)CN(Cc2ccc(F)cc2)C3)cc1 [Example 29, (S)-1-ethyl-3-(4-(6-(4-fluorobenzyl)-4-(3-methylmorpholino)-6,7-dihydro-5H-pyrrolo[3,4-d]pyrimidin-2-yl)phenyl)urea]
- IC50 [1, 3]: > 10 µM
- IC50 [1, 4]: > 10 µM
- IC50 [2]: 0.13 µM

Structure (SMILES): CNC(=O)Nc1ccc(-c2nc3c(c(N4CCOC[C@@H]4C)n2)CCNC3)cc1 [Example 16, (S)-1-methyl-3-(4-(4-(3-methylmorpholino)-5,6,7,8-tetrahydropyrido[3,4-d]pyrimidin-2-yl)phenyl)urea]
- IC50 [1, 3]: > 10 µM
- IC50 [1, 4]: > 10 µM
- IC50 [2]: 0.297 µM

Structure (SMILES): CCNC(=O)Nc1ccc(-c2nc3c(c(N4CCOC[C@@H]4C)n2)CCN(C(=O)N(C)C)C3)c(F)c1 [Example 176, (S)-2-(4-(3-ethylureido)-2-fluorophenyl)-N,N-dimethyl-4-(3-methylmorpholino)-5,6-dihydropyrido[3,4-d]pyrimidine-7(8H)-carboxamide]
- IC50 [1, 5]: 1 to 10 µM
- IC50 [2]: 0.076 µM

Structure (SMILES): CCNC(=O)Nc1ccc(-c2nc3c(c(N4CCOC[C@@H]4C)n2)CN(C=O)C3)cc1 [Example 8, (S)-1-ethyl-3-(4-(6-formyl-4-(3-methylmorpholino)-6,7-dihydro-5H-pyrrolo[3,4-d]pyrimidin-2-yl)phenyl)urea]
- IC50 [1, 3]: > 10 µM
- IC50 [1, 4]: > 10 µM
- IC50 [2]: 0.289 µM

Structure (SMILES): COC(=O)N1Cc2nc(-c3ccc(NC(=O)NCCF)cc3F)nc(N3CCOC[C@@H]3C)c2C1 [Example 183, (S)-methyl 2-(2-fluoro-4-(3-(2-fluoroethyl)ureido)phenyl)-4-(3-methylmorpholino)-5H-pyrrolo[3,4-d]pyrimidine-6(7H)-carboxylate]
- IC50 [1, 5]: > 10 µM
- IC50 [2]: 0.06 µM

Structure (SMILES): CN1Cc2nc(-c3ccc(NC(=O)NC4CC4)cc3F)nc(N3CCOCC3)c2C1 [Example 159, 1-(Cyclopropyl)-3-(3-fluoro-4-(6-methyl-4-morpholino-6,7-dihydro-5H-pyrrolo[3,4-d]pyrimidin-2-yl)phenyl)urea]
- IC50 [1, 5]: > 10 µM
- IC50 [2]: 0.271 µM

Structure (SMILES): CCNC(=O)Nc1ccc(-c2nc3c(c(N4CCOC[C@@H]4C)n2)CN(C(C)=O)C3)cc1 [Example 18, (S)-1-(4-(6-acetyl-4-(3-methylmorpholino)-6,7-dihydro-5H-pyrrolo[3,4-d]pyrimidin-2-yl)phenyl)-3-ethylurea]
- IC50 [1, 3]: > 10 µM
- IC50 [1, 4]: > 10 µM
- IC50 [2]: 0.443 µM

Structure (SMILES): CCOC(=O)N1Cc2nc(-c3ccc(NC(=O)NC4CC4)cc3F)nc(N3CCOCC3)c2C1 [Example 156, Ethyl 2-(4-(3-cyclopropylureido)-2-fluorophenyl)-4-morpholino-5H-pyrrolo[3,4-d]pyrimidine-6(7H)-carboxylate]
- IC50 [1, 5]: > 10 µM
- IC50 [2]: 0.135 µM

Structure (SMILES): C[C@H]1COCCN1c1nc(-c2ccc(NC(=O)NC3CC3)cc2F)nc2c1CCN(C(=O)N(C)C)C2 [Example 165, (S)-2-(4-(3-cyclopropylureido)-2-fluorophenyl)-N,N-dimethyl-4-(3-methylmorpholino)-5,6-dihydropyrido[3,4-d]pyrimidine-7(8H)-carboxamide]
- IC50 [1, 5]: > 10 µM
- IC50 [2]: 0.045 µM

Structure (SMILES): CCNC(=O)Nc1cc(F)c(-c2nc3c(c(N4CCOC[C@@H]4C)n2)CN(C(=O)OCC)C3)cc1F [Example 141, (S)-ethyl 2-(4-(3-ethylureido)-2,5-difluorophenyl)-4-(3-methylmorpholino)-5H-pyrrolo[3,4-d]pyrimidine-6(7H)-carboxylate]
- IC50 [1, 5]: > 10 µM
- IC50 [2]: 0.838 µM

Structure (SMILES): CCOC(=O)N1Cc2nc(-c3ccc(NC(=O)NCCF)cc3F)nc(N3CCOCC3)c2C1 [Example 170, ethyl 2-(2-fluoro-4-(3-(2-fluoroethyl)ureido)phenyl)-4-morpholino-5H-pyrrolo[3,4-d]pyrimidine-6(7H)-carboxylate]
- IC50 [1, 5]: 1 to 10 µM
- IC50 [2]: 0.105 µM

Structure (SMILES): CCN1Cc2nc(-c3ccc(NC(=O)NC4CC4)cc3)nc(N3CCOC[C@@H]3C)c2C1 [Example 36, (S)-1-cyclopropyl-3-(4-(6-ethyl-4-(3-methylmorpholino)-6,7-dihydro-5H-pyrrolo[3,4-d]pyrimidin-2-yl)phenyl)urea]
- IC50 [1, 3]: > 10 µM
- IC50 [1, 4]: > 10 µM
- IC50 [2]: 0.113 µM

Structure (SMILES): CC(=O)N1Cc2nc(-c3ccc(NC(=O)NC4CC4)cc3)nc(N3CCOC[C@@H]3C)c2C1 [Example 20, (S)-1-(4-(6-acetyl-4-(3-methylmorpholino)-6,7-dihydro-5H-pyrrolo[3,4-d]pyrimidin-2-yl)phenyl)-3-cyclopropylurea]
- IC50 [1, 3]: > 10 µM
- IC50 [1, 4]: > 10 µM
- IC50 [2]: 0.33 µM

Structure (SMILES): C[C@H]1COCCN1c1nc(-c2ccc(NC(=O)NC3CC3)cc2)nc2c1CN(C(=O)C(C)(C)C)C2 [Example 45, (S)-1-cyclopropyl-3-(4-(4-(3-methylmorpholino)-6-pivaloyl-6,7-dihydro-5H-pyrrolo[3,4-d]pyrimidin-2-yl)phenyl)urea]
- IC50 [1, 3]: > 10 µM
- IC50 [1, 4]: > 10 µM
- IC50 [2]: 0.063 µM

Structure (SMILES): CCOC(=O)N1Cc2nc(-c3ccc(NC(=O)NCCF)cc3F)nc(N3CCOC[C@@H]3C)c2C1 [Example 168, (S)-ethyl 2-(2-fluoro-4-(3-(2-fluoroethyl)ureido)phenyl)-4-(3-methylmorpholino)-5H-pyrrolo[3,4-d]pyrimidine-6(7H)-carboxylate]
- IC50 [1, 5]: > 10 µM
- IC50 [2]: 0.097 µM
